# Source: patent US20060270643A1, “Hyfroxyflutamide induced pathways related to androgen receptor negative prostate cancer cells” (priority 2002, published 2006)
# Several values for one entry are separate records, joined by “and”; a condition that tells them apart may be missing. Equal entries are not always repeated. Entries after “also recorded” stand apart in the source; their conditions may differ. Where two headings read alike, the source gives them in different places.
# How the values were obtained:
# [1] = tested on: p44/42 MAP kinase (ERK1 and 2); assay: Immunoblot of phosphorylated p44/42 MAP kinase in DU145 cells; type: cell-based, human
# Protocol: 7. […] (A) DU145 cells were grown in 100 mm dishes and serum-starved for 24 hours. The cells were lysed on ice. Equal amounts of cell lysate were analyzed by 12% SDS-PAGE and subsequent immunoblotted with anti-phospho ERK1/2 and anti-ERK1/2 antibodies. (B) Different cell lines, at 70 to 80% confluence, were lysed and immunoblotted with anti-AR polyclonal antibody, NH27. (C) DU145 cells were pre-incubated with MEK1/2 inhibitor U0126, or U0124 before HF, EGF, and ethanol treatment. Cells were lysed and immunoblotted with anti-phospho ERK1/2 and anti-ERK1/2 antibodies. (D) CWR2 and (E) PC3-AR cells were grown in 100 mm dishes and serum-starved for 24 hours. The cells were treated with HF, EGF or ethanol vehicle for 15 mins and immunoblotted with anti-phospho-ERK1/2 and anti-ERK1/2 antibodies. […] MMTV-ARE-Luc reporter plasmid was cotransfected with or without pSG5AR into DU145 cells. After 18 hours, cells were treated with 1 nM DHT, 1 μM HF or both for another 18 hours, and then harvested. Cell lysates were collected and assayed for the luciferase activity.
# 9. […] After 15 min treatment, cells were lysed and immunoblotted with anti-phospho ERK1/2 and antiERK1/2 antibodies. […] EGFR was immunoprecipitated from the cell lysates, and their phosphotyrosine level was determined by anti-phosphotyrosine antibody. All the results were visualized using enhanced chemiluminescence.
# 198. This assay uses a polyclonal antibody specific against the activated p44/42 MAP kinases (Cell Signaling Technology, Beverly, Mass.), which detects p44 and p42 MAP kinase (ERK1 and 2) only when catalytically activated by dual phosphorylation at Thr202 and Tyr204. DU145 cells were seeded at 1×10^5 cells per 100 mm plate and allowed to attach overnight and then the media were replaced with serum-free DMEM media for 24 hours. The cells were pre-treated with MAP kinase inhibitors, EGFR antibodies, or cycloheximide for 1 hour and followed by HF, EGF, or vehicle treatment. Cells were washed twice with PBS, harvested at indicated times, and lyzed with RIPA buffer for 30 min on ice. The protein concentrations were determined by Bradford assay, and equal amount of protein was resolved by SDS-PAGE. Gels were transferred, immunoblotted with p44/42 MAP kinase antibody (1/1000), and then incubated with secondary antibody. Proteins were visualized by the enhanced chemiluminescence system (NEN™ Life Science Products, Boston, Mass.). P44/42 MAP kinase (total ERK1/2) was blotted as a control.
# phospho-ERK1/2 = assay: Immunocytochemical staining of phospho-ERK1/2 in patients' prostate tumor biopsies; type: in vivo, human; conditions: recurrent tumors of four patients progressing while receiving flutamide (androgen ablation therapy); one value per patient
# Protocol: 6. […] Prostate tumor tissue sections from the same patient with either the pre- (A and C) and post-androgen ablation plus flutamide therapy (B and D), were immunohistochemically stained for phosphorylated ERK1/2. Sections were counterstained with Mayer Hematoxylin Blue (A and B). Original magnification ×400.
# 196. Immunocytochemical staining were performed on formalin-fixed, paraffin-embedded tissue sections using antibodies ERK1,and ERK2 (SC-94, and SC-154, 1/400 dilution), and phospho-ERK1/2 (SC-7383, 1/50 dilution) all from Santa Cruz (Santa Cruz, Calif.). Sections were cut at 4 to 5 microns and deparaffinized according to established procedures and quenched with 3% hydrogen peroxide for 6 min. Antigen unmasking with heat retrieval in citrate buffer/pH 6.0 was accomplished by placing slides in a microwave (1500 watts) pressure cooker for 30 minutes. Slides were rinsed and stained for 45 minutes with primary antibody, and then incubated for 20 min with secondary antibody and streptavidin-HRP. Slides were developed with AEC+, rinsed and counterstained with Mayer Hematoxylin Blue in 0.3% ammonia water.
# 201. […] Each slide was examined and scored the number of the cells stained positive for phosph-ERK1/2 under the 100× high power field. […]
# [2] = tested on: association between Ras and Raf; assay: Ras-Raf immunoprecipitation assay in DU145 cells; type: cell-based, human; conditions: lysates of treated DU145 cells; 1 μM HF, 10 ng/ml EGF, 1 μM 9-cis retinoic acid
# Protocol: 8. […] (A) DU145 cells were treated with ethanol (lane 1), 10 ng/ml EGF (lane 2), 1 μM 9-cis retinoic acid (lane 3), and 1 μM HF (lane 4) after 24 hour serum starvation. Cells were lysed and 300 μg of total protein were immunoprecipitated with anti-Ras antibody, pulled-down by a protein A/G agarose beads, and detected with an anti-Raf antibody. (B) DU145 cells were transfected with pCDNA3.1 or pCDNA3.1-Ras N17 as indicated. After 24 hours serum starvation, the cells were treated with different ligands for 20 min, and then harvested. Western blots were performed with antibodies against phosphoERK1/2 and ERK1/2. The density of phospho-ERK1/2 shown as Optical Density (OD) were determined by the Versa Doc Imaging System (Bio-Rad) and quantified by Quantity One software.
# 200. Serum-stared and treated DU145 cells were lysed with RIPA buffer for 30 min on ice. Lysates were then centrifuiged at 12,000 g for 10 min at 4° C. and protein concentrations were determined by the Bradford assay. 500 μg of cell lysates were incubated for 4 hours with either anti-Ras or anti-EGFR antibody (1/100, Santa Cruz Biotechnology) to the protein-antibody mixture and then added in 20 μl of protein A/G plus-agarose (Santa Cruz Biotechnology) for another 4 hours incubation with constant rotation. The immunoprecipitates were washed four times with cold PBS, resolved by SDS-PAGE, and immunoblotted by anti-Raf-1 antibody, or anti-phospho-tyrosine monoclonal antibody (Oncogene Research, Calbiochem, La Jolla, Calif.). The results were visualized by chemiluminescence.
# AR [3] = assay: AR phosphorylation in LNCaP cells (immunoprecipitation / Western blot); type: cell-based, human
# Protocol: (§1) 14. […] Anti-pSer, anti-phosphoserine antibody. […] Total AR protein was blotted using an anti-AR antibody (AR), and AR phosphorylation was detected using an anti-phospho-AR (S210) antibody (pAR). […] The cells were then harvested for immunoprecipitation with anti-AR antibody and Western blot analysis. NH27, anti-AR antibody, anti-pSer, anti-phosphoserine antibody.
# (§2) 219. The imrnunoprecipitation and Western blotting were performed as previously described (Lin, H. K., et al. (2001) Proc Natl Acad Sci USA 98, 7200-7205). The cell extracts (1 mg) were immunoprecipitated with the indicated antibody. The immunocomplexes were subjected to 8% SDS-PAGE and immunoblotted with the indicated antibody.
# AR [4] = assay: AR phosphorylation in COS-1 cells transfected with wtAR or mtAR; type: cell-based
# Protocol: as §1, §2
# DU145 cells = assay: Cell proliferation assay (hemacytometer counting); type: cell-based, human
# Protocol: 10. […] (A) DU145 cells were seeded in 10% FBS DMEM medium and 24 hours later cells were changed to serum free medium. 48 hours later changed the medium to 0.5% FBS medium and treated with ethanol, HF, or EGF. Every 24 hours, the cells were counted by hemacytometer. […]. […] (B) DU145 cells were seeded and transfected with anti-sense oligonucleotide of Ras (IRIS 2503: 5′-[…]-3′), Raf (IIUS: 5132:5′-[…]-3′) and HIV (5′-[…]-3′) (Chen, G., Oh, S., Monia B. P., and Stacey, D. W., J. Biol. Chem., 271: 28259-28265, 1996, Monia, B. P., et al., Proc. Natl. Acad. Sci. USA, 93: 15481-15484, 1996.) by SuperFect (Qiagen). 24 hour after serum starvation, we changed the cells to medium containing 0.5% FBS, and treated the cells as described in A. Cells were counted by hemacytometer every 24 hours. The cell lysate were blotted with anti-H-Ras and Raf antibodies and β-actin was blotted for loading control.
# 199. DU145 cells were seeded at 2×10^4/ml on 35 mm plates and allowed to attach overnight. Cells were kept in serum-free DMEM medium for 24 hours, and then media were replaced with DMEM-0.5% FBS and treated as indicated. Cells were trypsinized and counted with a hemacytometer at different times after treatments. For the antisense oligonuleotide experiments, cells were incubated with a fixed ratio of oligonucleotide versus SuperFect (2.5 μl of SuperFect per 100 nM oligo) for 4 hours and then the oligo-containing medium was replaced with DMEM-0.5% FBS. Cells were trypsinized and counted by hemacytometer at indicated times.
# cyclin D1 = assay: Western blot of cyclin D1 and cell cycle related gene products in DU145 cells; type: cell-based, human
# Protocol: (§3) 11. […] (A) DU145 cells were treated with HF (1 μM), or EGF (10 ng/ml), or ethanol vehicle for 12 hours after the serum starvation. Cells were lysed and blotted with anti-cyclin D1 antibody. (B) DU145 cells were serum starved for 24 hours and then co-transfected DN Ras or DN Raf together with […] Luc reporter with SuperFect (Qiagen). After 4 hours, the medium was changed to normal medium (10% serum) for 18 hours and then changed to serum starvation condition for another 24 hours and then treated with HF, EGF, or ethanol vehicle control. Cells were lysed for luciferase activity analysis.
# [5] = tested on: cyclin D1 promoter (−1745D1-Luc); assay: Cyclin D1 promoter luciferase reporter assay in DU145 cells; type: cell-based, human; conditions: 10^−6 M HF or 30 ng/ml EGF
# Protocol: as §3
# 197. DU145 cells were obtained from American Type Culture Collection and cultured in Dubecco's modified Eagles's medium (DMEM) supplemented with 10% fetal bovine serum (FBS). Cells (1×10^5) were seeded in 35 mm plates and transfected with the SuperFect transfection reagent (Qiagen, Chatworth, Calif.). After 4 hours the media were changed to serum-free DMEM media for 24 hours. Thereafter, the cells were treated with HF, EGF, and vehicle for 18 hours and then lysed for luciferase assay. Luciferase activity was normalized for taansfection efficiency using pRL-TK as an internal control. Luciferase assays were performed using dual-luciferase reporter system (Promega, Madison, Wis.).
compound,measurement,setting,value
COc1cc2ncnc(Nc3cccc(Cl)c3)c2cc1OC [AG1478],levels of phospho-ERK1/2 induced by either HF or EGF,[1]; preincubation with 100 nM for 1 hour,decreased levels of phospho-ERK1/2
C[C@@H]1C[C@@H]([C@H](O)CC2CC(=O)NC(=O)C2)C(=O)[C@@H](C)C1 [cycloheximide],block of MAP kinase activation mediated by HF or EGF,"[1]; Ten ng/ml cycloheximide, 1 hour pre-treatment",failed to block MAP kinase activation
same,MAP kinase activation with ethanol added to cycloheximide treatment,[1]; no HF or EGF (lane 7),slight increment
CC(C)C(=O)Nc1ccc([N+](=O)[O-])c(C(F)(F)F)c1 [Flutamide],cells stained positive for phospho-ERK1/2,phospho-ERK1/2,30% and 41% and 52% and 45%
N#CC(=C(/N)Sc1ccccc1N)/C(C#N)=C(\N)Sc1ccccc1N [U0126],block of HF-mediated MAP kinase activation,[1],can block HF-mediated MAP kinase activation
CS/C(N)=C(C#N)/C(C#N)=C(\N)SC [U0124],block of HF-mediated MAP kinase activation,[1]; DU145 cells pre-incubated with inhibitor before HF treatment,not
"CC1=C(/C=C/C(C)=C\C=C\C(C)=C\C(=O)O)C(C)(C)CCC1 [9 cis-retinoic acid, 9-cis retinoic acid]",Raf detected in the Ras immunocomplex,[2],not
IGF-1: insulin-like growth factor-1,AR phosphorylation,"AR [3]; LNCaP cells (P38), IGF-1 for 4 hours",induced AR phosphorylation
same,AR phosphorylation at S210,"AR [3]; LNCaP cells treated with IGF-1, site-specific anti-phosphoserine AR antibody",detected
same,phosphorylation of mutant AR (mtAR) (S210A/S790A),AR [4]; IGF-1,did not induce phosphorylation
same,wild-type (wtAR) phosphorylation,AR [4]; IGF-1 for 4 hours,induced wild-type (wtAR) phosphorylation
EGF: epidermal growth factor,Raf detected in the Ras immunocomplex,[2],detected
same,cell proliferation,DU145 cells; cells maintained in 10% FBS medium (data not shown),no significant stimulation of cell proliferation
same,cell proliferation,DU145 cells; low serum (0.5% FBS) after serum starvation,stimulate the DU 145 cell growth significant; also recorded: can promote cell proliferation
same,cyclin D1 expression,cyclin D1; HF (1 μM) or EGF (10 ng/ml) for 12 hours after serum starvation,induced
same,"other cell cycle related gene products (p27, p21, Ki67, PCNA)",cyclin D1; after HF- or EGF-treatment,no significant change
same,induction of cyclin D1 promoter (−1745D1-Luc) activity,[5],about 2 fold
